Where two headings read alike, the source gives them in different places.
Assays:
[1] = Biliary (hepatobiliary) excretion in rats after a 30-min infusion of Kang-Ai injection; type: in vivo, Sprague–Dawley rats; conditions: rat, in vivo, iv
Method: (§1) For urine sampling, the rats were housed singly in metabolic cages. And then, the urine samples were collected at 0–4, 4–8 and 8–12 h after starting infusion and were weighed. Likewise, bile samples were also collected at 0–3, 3–6, 6–9 and 9–12 h after starting infusion and were weighed. The urine and bile collection tubes were all frozen at − 80 °C.
(§2) Pharmacokinetic parameters were estimated by non-compartmental analysis using WinNonlin 6.3 software (Pharsight, NC, US). Data are presented as the mean ± SD (n = 3). The area under the concentration–time curve up to the last measured point in time (AUC0-t) was calculated using the trapezoidal rule. The total plasma clearance (CLtot, p) was calculated by dividing the compound dose by the AUC0-∞, and the distribution volume at steady state (VSS) was estimated by multiplying the CLtot, p by the mean residence time (MRT). The renal excretory clearance (CLR) and hepatobiliary (CLB) was determined by dividing the cumulative amount excreted into urine (Cum.Ae-U) and bile (Cum.Ae-B) by the plasma AUC0-∞, respectively. The fractions of dose excreted into urine (fe-U) and the fractions of dose excreted into bile (fe-B) were established using the relationship Cum.Ae-U/Dose and Cum.Ae-B/Dose, respectively. Mean differences between treatment and control groups were analyzed by two-tailed unpaired Student’s t test by Graphpad Prism V5 software (SanDiego, CA). The level of significance was set at p < 0.05 (∗), p < 0.01 (∗∗) or p < 0.001 (∗∗∗).

[2] = Plasma pharmacokinetics in rats after a 30-min intravenous infusion of Kang-Ai injection; type: in vivo, Sprague–Dawley rats
Method: Specific pathogen free (SPF) grade male Sprague–Dawley rats (250 ± 20) g were provided by the Experimental Animal Center of Zhengzhou University (Zhengzhou, China). These rats were kept in a designated animal room at constant temperature (22 ± 2) °C and humidity (50 ± 20) % with 12 h of light/dark per day and free access to water and food. All protocols of animal experiments were approved in accordance with the Regulations of Experimental Animal Administration issued by the Ethics Review Committee for Animal Experimentation of Jinan University (Ethical Review NO. 20190301010). Prior to the experiments, the rats were fasted for 12 h but with free access to water. After study use, the rats were euthanized with CO2 gas.
The rats in this study all received a single 30-min intravenous infusion of Kang-Ai injection via the tail veins using TYD01-02 infusion pumps (Lead Fluid, Baoding, China). The dose was derived from the label daily dose of Kang-Ai injection (60 mL/person, once daily) according to dose normalization by body surface area. For plasma pharmacokinetic studies, the rats were randomly received a single intravenous 30 min-bolus dose at 6 mL/kg. Blood samples (100 μL) were collected from the rats’ external jugular veins into heparinized polypropylene tubes at 5, 15, 30, 45 min, and 1, 1.5, 2, 3, 4, 6, 8, 12 h. After gently shaking for 10 s, the blood samples were centrifuged at 13000 g for 10 min to yield plasma samples, which were kept frozen at − 80 °C until analysis.
as §2

[3] = Urinary (renal) excretion in rats after a 30-min infusion of Kang-Ai injection; type: in vivo, Sprague–Dawley rats
Method: as §1, §2

[4] = Stability tests of analytes in rat plasma QC samples; type: in vitro ADME; conditions: rat plasma
Method: […] The dilution integrity was investigated by analyzing six replicate samples with each analyte, and each analyte were diluted 10-fold with blank rat matrix. Furthermore, the diluted samples were analyzed using freshly prepared calibration curve to calculate RE and RSD, which should be no more than ± 15% as criterion.

[5] = Protein binding assay (equilibrium dialysis); type: in vitro ADME, rat
Method: Binding of circulating alkaloids and saponins to rat plasma was measured by equilibrium dialysis using Spectra/Por 2 dialysis membranes (molecular weight cutoff, 12–14 kDa; Rancho Dominguez, CA, USA) as described. After equilibrating for 24 h at 55 rpm and 37 °C, the dialysate and the plasma were sampled for analysis. […] The concentrations of tested matrine, oxysophocarpine and oxymatrine were 2 μmol/L, while those of astragaloside IV, III, and ginsenosides Rh1, Rg2, Rg1, Rf, Re, Rd, Rc, Rb1, Rb2, notoginsenosides R1, R2, were 4 μmol/L. The unbound fraction (fu-plasma) in rat plasma was calculated as follow: fu-plasma = Cd/Cp × 100%, where the Cd and Cp values were the concentrations of each analyte in the dialysate sample and in the post-dialysis plasma sample, respectively.

[6] = rat plasma, 30-min iv infusion of Kang-Ai injection 6 mL/kg
[7] = rat urine 0–12 h, Kang-Ai injection 6 mL/kg iv

CLB (hepatobiliary clearance) [1] [mL/h]	fe-B,0–12h (fraction of dose excreted into bile) [1] [%]	CLtot, p ([2]; rat, in vivo, iv) [mL/h]	Cmax ([2]; rat, in vivo, iv) [nM]	VSS ([2]; rat, in vivo, iv) [mL]	t1/2 ([2]; rat, in vivo, iv) [min]	CLR (renal excretory clearance) ([3]; rat, in vivo, iv) [mL/h]	fe-U,0–12h (fraction of dose excreted into urine) ([3]; rat, in vivo, iv) [%]	Structure (SMILES)	At -80 °C for 48 h, Mean±SD ([4]; nominal conc. 20 nM) [nM]	At -80 °C for 48 h, RE ([4]; nominal conc. 20 nM) [%]	Extracted samples at 8 °C for 18 h, Mean±SD ([4]; nominal conc. 20 nM) [nM]	Extracted samples at 8 °C for 18 h, RE ([4]; nominal conc. 20 nM) [%]	Short-term stability at room temperature for 6 h, Mean±SD ([4]; nominal conc. 20 nM) [nM]	Short-term stability at room temperature for 6 h, RE ([4]; nominal conc. 20 nM) [%]	Three freeze-thaw cycles (-80 °C ↔ 23 °C), Mean±SD ([4]; nominal conc. 20 nM) [nM]	Three freeze-thaw cycles (-80 °C ↔ 23 °C), RE ([4]; nominal conc. 20 nM) [%]	At -80 °C for 48 h, Mean±SD ([4]; nominal conc. 100 nM) [nM]	At -80 °C for 48 h, RE ([4]; nominal conc. 100 nM) [%]	Extracted samples at 8 °C for 18 h, Mean±SD ([4]; nominal conc. 100 nM) [nM]	Extracted samples at 8 °C for 18 h, RE ([4]; nominal conc. 100 nM) [%]	further results
0.68 ± 0.16	1.27 ± 0.20	56.05 ± 22.70	397 ± 49.7	53.50 ± 7.71	49.2 ± 22.2	34.24 ± 17.17	59.77 ± 8.80	O=C1CCC[C@@H]2[C@H]3CCCN4CCC[C@@](O)(CN12)[C@@H]34 [Compound A9, Sophoranol]													
								CC(C)(O)[C@@H]1CC[C@](C)([C@H]2[C@@H](O)C[C@@]3(C)[C@@H]4C[C@H](O)[C@H]5C(C)(C)[C@@H](O[C@@H]6OC[C@@H](O)[C@H](O)[C@H]6O[C@@H]6O[C@H](CO)[C@@H](O)[C@H](O)[C@H]6O)CC[C@@]56C[C@@]46CC[C@]23C)O1 [Compound B3, Astragaloside III]	19.85 ± 0.45	-3.31	17.98 ± 1.29	-14.29	19.47 ± 1.70	-12.31	19.24 ± 0.59	-6.46	89.68 ± 4.10	-13.24	99.17 ± 12.67	13.54	Short-term stability at room temperature for 6 h, Mean±SD ([4]; nominal conc. 100 nM): 91.15 ± 3.72 nM; Short-term stability at room temperature for 6 h, RE ([4]; nominal conc. 100 nM): -13.15%; Three freeze-thaw cycles (-80 °C ↔ 23 °C), Mean±SD ([4]; nominal conc. 100 nM): 103.49 ± 8.05 nM; Three freeze-thaw cycles (-80 °C ↔ 23 °C), RE ([4]; nominal conc. 100 nM): 9.29%; At -80 °C for 48 h, Mean±SD ([4]; nominal conc. 400 nM): 431.79 ± 15.31 nM; At -80 °C for 48 h, RE ([4]; nominal conc. 400 nM): 12.29%; Extracted samples at 8 °C for 18 h, Mean±SD ([4]; nominal conc. 400 nM): 400.78 ± 32.83 nM; Extracted samples at 8 °C for 18 h, RE ([4]; nominal conc. 400 nM): -8.93%; Short-term stability at room temperature for 6 h, Mean±SD ([4]; nominal conc. 400 nM): 348.69 ± 3.47 nM; Short-term stability at room temperature for 6 h, RE ([4]; nominal conc. 400 nM): -13.71%; Three freeze-thaw cycles (-80 °C ↔ 23 °C), Mean±SD ([4]; nominal conc. 400 nM): 387.44 ± 17.00 nM; Three freeze-thaw cycles (-80 °C ↔ 23 °C), RE ([4]; nominal conc. 400 nM): -6.84%; AUC0–12h [2, 6]: 34.29 ± 5.22 nmol·h/L; t1/2 [2, 6]: 19.8 ± 7.8 min; Cmax ([2]; rat plasma, 30-min iv infusion of Kang-Ai injection 6 mL/kg, read-out: Cmax): 54.8 ± 10.2 nM; VSS (Vd) ([2]; rat, Kang-Ai injection 6 mL/kg iv): < 100 mL/kg; bound in rat plasma ([5]; rat plasma, equilibrium dialysis): ~90%; fu-plasma (unbound fraction) ([5]; rat plasma, equilibrium dialysis 24 h, 37 °C, 2 μmol/L alkaloids, 4 μmol/L saponins): 11.04 ± 0.86%; fe-U,0–12h (fraction of dose excreted into urine) [3, 7]: 2.60 ± 0.69%
59.94 ± 6.71	23.55 ± 1.97	255.80 ± 34.97	128 ± 13.3	99.30 ± 20.42	17.4 ± 7.2	25.62 ± 3.48	10.27 ± 2.49	CC(C)=CCC[C@](C)(O)[C@H]1CC[C@]2(C)[C@@H]1[C@H](O)C[C@@H]1[C@@]3(C)CC[C@H](O)C(C)(C)[C@@H]3[C@@H](O[C@@H]3O[C@H](CO)[C@@H](O)[C@H](O)[C@H]3O[C@@H]3OC[C@@H](O)[C@H](O)[C@H]3O)C[C@]12C [Compound C3, Notoginsenoside R2]													AUC0–12h ([2]; rat, in vivo, iv): 85.57 ± 10.54 nmol·h/L; fu-plasma (unbound fraction) ([5]; rat, plasma): 35.24 ± 2.85%
								CC(C)=CCC[C@](C)(O[C@@H]1O[C@H](CO[C@@H]2OC[C@H](O)[C@H](O)[C@H]2O)[C@@H](O)[C@H](O)[C@H]1O)[C@H]1CC[C@]2(C)[C@@H]1[C@H](O)C[C@@H]1[C@@]3(C)CC[C@H](O[C@@H]4O[C@H](CO)[C@@H](O)[C@H](O)[C@H]4O[C@@H]4O[C@H](CO)[C@@H](O)[C@H](O)[C@H]4O)C(C)(C)[C@@H]3CC[C@]12C [Compound D4, Ginsenoside Rb2]	20.39 ± 1.54	-6.96	19.58 ± 2.21	-12.48	20.28 ± 1.99	10.37	20.89 ± 1.50	11.32	95.34 ± 8.02	-12.47	96.04 ± 12.11	-10.99	Short-term stability at room temperature for 6 h, Mean±SD ([4]; nominal conc. 100 nM): 88.84 ± 2.61 nM; Short-term stability at room temperature for 6 h, RE ([4]; nominal conc. 100 nM): -13.48%; Three freeze-thaw cycles (-80 °C ↔ 23 °C), Mean±SD ([4]; nominal conc. 100 nM): 104.61 ± 9.20 nM; Three freeze-thaw cycles (-80 °C ↔ 23 °C), RE ([4]; nominal conc. 100 nM): 10.55%; At -80 °C for 48 h, Mean±SD ([4]; nominal conc. 400 nM): 423.10 ± 46.59 nM; At -80 °C for 48 h, RE ([4]; nominal conc. 400 nM): 12.64%; Extracted samples at 8 °C for 18 h, Mean±SD ([4]; nominal conc. 400 nM): 434.41 ± 11.65 nM; Extracted samples at 8 °C for 18 h, RE ([4]; nominal conc. 400 nM): 11.01%; Short-term stability at room temperature for 6 h, Mean±SD ([4]; nominal conc. 400 nM): 352.24 ± 2.93 nM; Short-term stability at room temperature for 6 h, RE ([4]; nominal conc. 400 nM): -12.50%; Three freeze-thaw cycles (-80 °C ↔ 23 °C), Mean±SD ([4]; nominal conc. 400 nM): 440.44 ± 2.62 nM; Three freeze-thaw cycles (-80 °C ↔ 23 °C), RE ([4]; nominal conc. 400 nM): 13.72%; clearance ([2]; male, Sprague-Dawley, plasma, rat, 30-min iv infusion of Kang-Ai injection 6 mL/kg, Table 1 unit, read-out: CLtot, p (converted)): 0.13 mL/min; Vd ([2]; male, Sprague-Dawley, plasma, rat, 30-min iv infusion of Kang-Ai injection 6 mL/kg, Table 1 unit, read-out: VSS): 0.0396 ± 0.0073 L; Cmax ([2]; male, Sprague-Dawley, rat plasma, 30-min iv infusion of Kang-Ai injection 6 mL/kg, read-out: Cmax): 301 ± 34.2 nM; half-life ([2]; male, Sprague-Dawley, rat plasma, 30-min iv infusion of Kang-Ai injection 6 mL/kg, read-out: t1/2 (converted)): 247 ± 49.8 min; fraction unbound at 24 h ([5]; rat plasma, equilibrium dialysis 24 h, 37 °C, 2 μmol/L alkaloids, 4 μmol/L saponins, read-out: fu-plasma (unbound fraction)): 0.0067 ± 0.0005; CL renal ([3]; male, Sprague-Dawley, urine and plasma, rat, Kang-Ai injection 6 mL/kg iv, read-out: CLR (renal excretory clearance) (converted)): 0.0357 mL/min; fe-U,0–12h (fraction of dose excreted into urine) [3, 7]: 27.80 ± 4.47%

Reference: article PMC7339578, “Multiple circulating alkaloids and saponins from intravenous Kang-Ai injection inhibit human cytochrome P450 and UDP-glucuronosyltransferase isozymes: potential drug–drug interactions” (Chinese Medicine, 2020)
